Measured values from patent US8865731B2, “Inhibitor of analgesic tolerance” (Kyowa Hakko Kirin Co., Ltd., priority 2008, dated 2014).

System: Male ddY mice
Test: Suppressing activity on morphine analgesic tolerance (hot plate method, response latency)
Type: in vivo
Settings: for ΔChange (Latency at each time point − Pre value) 0.5 h: day 7, 0.5 h; for ΔChange (Latency at each time point − Pre value) 1 h: day 7, 1 h; for ΔChange (Latency at each time point − Pre value) 2 h: day 7, 2 h
[1] = Table 4, Compound (IIA) 100 mg/kg p.o. repeatedly administered alone
[2] = Table 4, repeated combination group: Compound (IIA) 100 mg/kg p.o. 30 min before each morphine 6 mg/kg s.c., 7 days
[3] = Table 1, Compound (IIIB) 3 mg/kg p.o. repeatedly administered alone
[4] = Table 1, repeated combination group: Compound (IIIB) 3 mg/kg p.o. 30 min before each morphine 6 mg/kg s.c., 7 days
[5] = Table 2, Compound (IIIC) 1 mg/kg p.o. repeatedly administered alone
[6] = Table 2, repeated combination group: Compound (IIIC) 1 mg/kg p.o. 30 min before each morphine 6 mg/kg s.c., 7 days
[7] = Table 5, compound 30 mg/kg p.o. repeatedly administered alone
[8] = Table 5, repeated combination group: compound 30 mg/kg p.o. 30 min before each morphine 6 mg/kg s.c., 7 days
[9] = Table 4, Compound (VIA) 30 mg/kg p.o. repeatedly administered alone
[10] = Table 4, repeated combination group: Compound (VIA) 30 mg/kg p.o. 30 min before each morphine 6 mg/kg s.c., 7 days

For `CC(C)(O)CCN1CCN(c2cc3nc(-c4ccco4)nn3c(N)n2)CC1` [Compound (IIA)], the “ΔChange (Latency at each time point − Pre value) 0.5 h” value [1] was 1.2 ± 1.5 s, the “ΔChange (Latency at each time point − Pre value) 1 h” value [1] was 1.7 ± 1.4 s and the “ΔChange (Latency at each time point − Pre value) 2 h” value [1] was 0.9 ± 1.1 s. The “ΔChange (Latency at each time point − Pre value) 0.5 h” value [2] was 12.8 ± 1.9 s, the “ΔChange (Latency at each time point − Pre value) 1 h” value [2] was 6.4 ± 1.7 s and the “ΔChange (Latency at each time point − Pre value) 2 h” value [2] was 2.4 ± 1.2 s. For the same compound, the “development of analgesic tolerance (response latency)” value (shortened to “development of analgesic tolerance”) (Test Example 5, Compound (IIA) 100 mg/kg p.o. 30 min before each morphine 6 mg/kg s.c., 7 days) was “the development of analgesic tolerance was prevented” and the “effect on the response latency” value (Test Example 5, Compound (IIA) 100 mg/kg p.o. repeatedly administered alone) was “the effect on the response latency was not observed”.
With `Cc1ncc(C(=O)Nc2nc(-c3ccco3)c(C(=O)C3CCOCC3)s2)cn1` [Compound (IIIB)] the “ΔChange (Latency at each time point − Pre value) 0.5 h” value [3] was 0.1 ± 0.5 s, the “ΔChange (Latency at each time point − Pre value) 1 h” value [3] was −0.1 ± 0.4 ^ sec and the “ΔChange (Latency at each time point − Pre value) 2 h” value [3] was 0.4 ± 1.2 s. For the same compound, the “ΔChange (Latency at each time point − Pre value) 0.5 h” value [4] was 18.2 ± 1.2 s, the “ΔChange (Latency at each time point − Pre value) 1 h” value [4] was 13.5 ± 0.8 s and the “ΔChange (Latency at each time point − Pre value) 2 h” value [4] was 4.8 ± 0.7 s. For the same compound, the “development of analgesic tolerance” value (Test Example 3, Compound (IIIB) 3 mg/kg p.o. 30 min before each morphine 6 mg/kg s.c., 7 days) was “the development of analgesic tolerance was prevented” and the “effect on the response latency” value (Test Example 3, Compound (IIIB) 3 mg/kg p.o. repeatedly administered alone) was “the effect on the response latency was not observed”.
In the case of `Cc1ccc(C(=O)Nc2nc(-c3ccco3)c(C(=O)C3CCOCC3)s2)cn1` [Compound (IIIC)], the “ΔChange (Latency at each time point − Pre value) 0.5 h” value [5] is reported as −2.2 ± 1.3^ sec, the “ΔChange (Latency at each time point − Pre value) 1 h” value [5] is reported as -1.0 ± 0.7 s and the “ΔChange (Latency at each time point − Pre value) 2 h” value [5] is reported as -1.0 ± 0.9 s. For the same compound, the “ΔChange (Latency at each time point − Pre value) 0.5 h” value [6] was 16.1 ± 2.4 s, the “ΔChange (Latency at each time point − Pre value) 1 h” value [6] was 9.3 ± 1.6 s and the “ΔChange (Latency at each time point − Pre value) 2 h” value [6] was 1.9 ± 0.9 s. For the same compound, the “development of analgesic tolerance” value (Test Example 3, Compound (IIIC) 1 mg/kg p.o. 30 min before each morphine 6 mg/kg s.c., 7 days) was “the development of analgesic tolerance was prevented” and the “effect on the response latency” value (Test Example 3, Compound (IIIC) 1 mg/kg p.o. repeatedly administered alone) was “the effect on the response latency was not observed”.
`COCCOc1ccc(N2CCN(CCn3ncc4c3nc(N)n3nc(-c5ccco5)nc43)CC2)cc1` [Compound (IVA)] was tested, and the “ΔChange (Latency at each time point − Pre value) 0.5 h” value [7] was 0.5 ± 0.6 s, the “ΔChange (Latency at each time point − Pre value) 1 h” value [7] was −0.4 ± 1.0 ^ sec and the “ΔChange (Latency at each time point − Pre value) 2 h” value [7] was -0.5 ± 1.4 s. The “ΔChange (Latency at each time point − Pre value) 0.5 h” value [8] was 14.9 ± 1.6 s, the “ΔChange (Latency at each time point − Pre value) 1 h” value [8] was 8.3 ± 0.4 s and the “ΔChange (Latency at each time point − Pre value) 2 h” value [8] was 0.7 ± 1.1 s. The “development of analgesic tolerance” value (Test Example 6, compound 30 mg/kg p.o. 30 min before each morphine 6 mg/kg s.c., 7 days) was “the development of analgesic tolerance was prevented” and the “effect on the response latency” value (Test Example 6, compound 30 mg/kg p.o. repeatedly administered alone) was “the effect on the response latency was not observed”.
In the case of `CCCCc1nc(N)c2nc(-n3nccn3)n(C)c2n1` [Compound (VIA)], the “ΔChange (Latency at each time point − Pre value) 0.5 h” value [9] is reported as -0.8 ± 1.3 s, the “ΔChange (Latency at each time point − Pre value) 1 h” value [9] is reported as 0.2 ± 2.1 s and the “ΔChange (Latency at each time point − Pre value) 2 h” value [9] is reported as -0.2 ± 1.1 s. For the same compound, the “ΔChange (Latency at each time point − Pre value) 0.5 h” value [10] was 13.0 ± 2.4 s, the “ΔChange (Latency at each time point − Pre value) 1 h” value [10] was 7.6 ± 1.7 s and the “ΔChange (Latency at each time point − Pre value) 2 h” value [10] was 1.9 ± 1.3 s. The “development of analgesic tolerance” value (Test Example 5, Compound (VIA) 30 mg/kg p.o. 30 min before each morphine 6 mg/kg s.c., 7 days) was “the development of analgesic tolerance was prevented” and the “effect on the response latency” value (Test Example 5, Compound (VIA) 30 mg/kg p.o. repeatedly administered alone) was “the effect on the response latency was not observed”.
